Experimental findings from a melting point compilation (Tetko et al.; mined from patent text by program, amines drawn as free bases though some values may be those of a salt) are described below.

Bounds are passed on as bounds.

The compound `CO[C@@H](C)CNC(=O)c1c[nH]c2ncc(-c3nn(C)c4cc(F)ccc34)nc12` had a melting point of 269 to 271 °C.
Under `NC1=NS(=O)(=O)c2sc(Cl)cc2N1` stands above 361 °C; under `Cc1coc(NC(=S)Nc2ccc(Cl)cc2C)n1`, 214 °C; under `CC(C)OC(=O)Nc1ccc(N)c(N)c1`, 108 to 110 °C.
Consider `N#Cc1cc(-c2cnccn2)c[nH]c1=O`, for which the melting point was found to be 250 °C.
Under `CC(=O)C(C)c1ccc2c(c1)Cc1cccnc1O2` (stereo not drawn) stands 136 °C.
Under `NC(=O)c1cn(C(CO)CCc2ccccc2)cn1` (stereo not drawn) stands 127 to 130 °C; under `Cn1cc(C2=C(c3cn4c5c(cccc35)CCC4CCO)C(=O)NC2=O)c2ccccc21` (stereo not drawn), 214 to 215 °C; under `CCCCONC(=O)c1nc(-c2ccc(Cl)c(OC)c2F)cc(N)c1Cl`, 130 to 132 °C.
The same measure for `O=[N+]([O-])c1c(Cl)c(Cl)cc2nc(Cl)c(Cl)nc12`: 118 to 120 °C; for `CC(C)c1cc(Oc2c(Cl)cc(CP(=O)(O)O)cc2Cl)ccc1O`: 178 to 181 °C.
Turning to `Cc1csc2ncc(C=O)n12`, the melting point was in the range of 163 to 165 °C.
For `CCCCCCCCCCCCCCCCC(O)CBr` (stereo not drawn), the melting point fell in the range of 53.5 to 54.5 °C.
Under `Cc1nc(C)c(N2CCCn3c2nc2c(Cl)ccc(C(OC(F)F)C(F)(F)F)c23)c(C)n1` (stereo not drawn) stands 168 to 170 °C; under `COC(=O)CCc1nc(-c2ccc(O)cc2)c(-c2ccccc2)o1`, 115 to 116 °C; under `CSc1noc(-c2ccc(OCCOc3ccc([N+](=O)[O-])cc3)cc2)c1C#N`, 170 to 171 °C.
Under `O=C1CCC(N2Cc3c(OCc4ccc(CN5CCc6cc(F)ccc6C5)cc4)cccc3C2=O)C(=O)N1` (stereo not drawn) stands 123 to 125 °C; under `O=C(c1cc(-c2ccc(OCc3ccccc3)cc2)c(=O)n2ccc3ccsc3c12)N(CCN1CCOCC1)c1ccccc1`, 168 to 170 °C.
On to `CC(C)n1nc(-c2nc(C#N)c(N)nc2-c2ccccc2)ccc1=O`, for which the melting point was 231 to 233 °C.
The same measure for `CC(C)(c1ccc(O)cc1)c1ccc(O)c(C(C)(C)c2ccc(O)cc2)c1`: 190 °C.
With `COc1ccc2c(c1)CCC(CN1CCC3(CC1)C(=O)NCN3c1ccccc1)=C2`, the melting point was 182 to 193 °C.
The same measure for `Cc1cc(C(=O)Oc2ccccc2)c(O)c2ccccc12`: 76 to 77 °C; for `BrCc1ccc(C=Cc2ccccc2)cc1`: 125 to 127 °C.
The compound `Cc1ccc(C(N)(c2ccc3c(c2)C(c2cccc(Cl)c2)Nc2nnnn2-3)c2cncn2C)cc1` (stereo not drawn) came in with a melting point of 140 °C.
Under `CCOc1ccc(-n2c(-c3ccc(SC)cc3)nc(SC)c(C#N)c2=O)cc1` stands 209 to 213 °C.
The same measure for `CC(C)(OCCCCCCCCc1csc(-c2ccccc2)n1)C(=O)O`: 64 to 70 °C; for `Cc1cc(-c2nc(-c3ccc(OC(F)(F)F)cc3)no2)nn1Cc1ccnc(N2CCN(C3CC3)CC2)c1`: 140 °C; for `NC(=O)c1nc(-c2cccc(O)c2)nc2c1[nH]c(=O)n2[C@@H]1CCOC1`: 353 to 355 °C.
Under `COc1ccc2nc3c(cc2c1)c(Cl)nn3C` stands 138 to 139 °C.
On to `NC(=O)[C@H](CO)NC(=O)c1cccc(NS(=O)(=O)CC2CN(C(c3ccc(Cl)cc3)c3ccc(Cl)cc3)C2)c1`, for which the melting point was 245 to 247 °C.
The same measure for `CC(C)(C)c1cc(CCc2ccccc2NC(=O)N2CCc3ccccc3C2)cc(C(C)(C)C)c1O`: 148 to 150 °C.
The compound `COc1cn(-c2ccc(N3CC(F)(F)C(F)(F)C3)cc2F)nc(-c2ccnn2-c2ccccc2)c1=O` returned a melting point of 175 to 177 °C.
The same measure for `NCCNC(=S)Nc1c(Cl)cc([N+](=O)[O-])cc1Cl`: 205 °C; for `O=Cc1cn(Cc2ccc(OCc3csc(-c4ccccc4)n3)cc2)nc1-c1cccs1`: 115 to 116 °C.
The same measure for `CN1C(=S)N(c2ccc(C#N)c(C(F)(F)F)c2)C(=O)C1(CO)CO`: 169 to 170 °C.
The same measure for `CCCc1c(OCc2ccc(OCC(=O)O)cc2)ccc(C(C)=O)c1O`: 140 to 142 °C.
In turn, `COCCN1CCN(CCc2ccc(Nc3ncc4c(n3)-c3ccccc3[C@H](c3ccc(F)cc3)C4)cc2)CC1` showed a melting point of 195 to 198 °C.
`O=C(O)C(O)c1ccc(Cc2ccccc2)s1` (stereo not drawn) displayed a melting point of 81 to 82 °C.
For `CCCN1CCC(c2n[nH]c3cc(F)ccc23)CC1`, the melting point lay within 175 to 177 °C.
`CCCCCCCCCCCCNC(=O)N(C)C[C@H](O)[C@@H](O)[C@H](O)[C@H](O)CO`: the melting point worked out at 117 °C.
The same measure for `C=CCOc1ccc(S(=O)(=O)c2ccc(C)nc2Nc2c(C)cc(C)cc2C)cc1`: 138 to 140 °C; for `CSc1ccnc(Oc2cc(C#N)cc(C#N)c2)n1`: 237 °C; for `CCOC(=O)c1cncc(C(=O)O)c1`: 180 to 182 °C.
The same measure for `O=C(O)Cn1c(-c2cccc(C(F)(F)F)c2)nc2cccnc21`: 240 to 242 °C; for `CCOC(=O)C(=NOC)c1noc(C(Cl)(Cl)Cl)n1`: 143 to 146 °C.
Regarding `O=C1O[C@@H]2C[C@@]1(O)CC[C@H]2O`, the melting point is 212 to 214 °C.
The same measure for `CC(C)C(CN=C(O)C(Cl)=C(Cl)C(=O)O)c1ccc(Cl)cc1` (stereo not drawn): 91 to 92 °C.
Under `COc1ccc(NS(=O)(=O)c2ccc(N3CCNC3=O)cc2)cc1` stands 210 to 211 °C; under `Cc1nc(-n2ccc(O)cc2=O)sc1C(=O)NCc1ccc(F)c(F)c1`, 294 to 296 °C; under `O=C(O)CCc1cc2cc(Cl)ccc2n1S(=O)(=O)c1ccc2c(c1)CCN2`, 157 °C.
In turn, `O=C(Nc1ccc(F)c(CO)c1)c1ccccn1` gave a melting point of 99 to 122 °C.
In turn, `CCOC1OC(=O)CC1NC(=O)C1CCCN1C(=O)C(NC(=O)c1ccc(N)c(Cl)c1)C(C)(C)C` (stereo not drawn) gave a melting point of 96 to 99 °C.
As to `CCNC(=O)N(C)c1ccc(C(O)(C(F)(F)Cl)C(F)(F)Cl)cc1`, the melting point was 155 to 157 °C.
Under `COc1ccc2c(c1)CCC(c1ccncc1)O2` (stereo not drawn) stands 88 to 91 °C.
As for `Cc1oc(-c2ccccc2)nc1CCOc1ccc(C[C@@H](C(=O)O)N2CCN(c3cccc(Cl)c3)CC2)cc1`, the melting point fell in the range of 138 to 139 °C.
Under `CSCc1cccc(CNC(=O)c2nc3scc(COCc4ccc(C(=O)O)cc4)c3c(=O)[nH]2)c1` stands 222 to 223 °C; under `CCOC(=O)c1ccc(NCCCCCCCCCCCOc2ccccc2)cc1`, 83 to 87 °C.
The same measure for `CCOc1ccc2c(c1)n(C1CCCCC1)c(=O)n2S(=O)(=O)c1ccc(C(=O)NC2Cc3ccccc3C2)cc1OC`: 160 °C; for `C[C@H]1OC(=O)[C@@H]2C=C3CCCC[C@H]3[C@H](O)[C@H]12`: 156 to 157 °C; for `CNS(=O)(=O)c1cc(C)oc1CC(=O)O`: 112 to 113 °C.
The same measure for `COc1cc2ncc(OC3CC4CC3C(O)C4O)nc2cc1OC` (stereo not drawn): 85 to 88 °C; for `O=S1(=O)c2cccc3cccc(c23)N1CCCCN1CC=C(c2ccccc2)CC1`: 101 °C.
`CCOC(=O)c1cc2ccc(N(CC)CC)cc2oc1=O` had a melting point of 77 to 78 °C.
Under `CC(NC(=O)NCCCCC1CCSS1)C(=O)NS(N)(=O)=O` (stereo not drawn) stands 156 to 157 °C; under `O=C(O)c1cn(C2CC2)c2c(F)c(N3CCNC(CF)C3)c(F)c(F)c2c1=O` (stereo not drawn), 219 to 220 °C; under `Cn1nc(C2CCCC2)cc1N`, 149 to 150 °C.
The same measure for `O=C(O)Cn1c(=O)n(S(=O)(=O)c2ccc(Cl)cc2)c(=O)c2ccc(Cl)cc21`: 194 to 195 °C.
The same measure for `O=c1[nH]c2c([nH]c1=O)C(O)c1ccccc1-2` (stereo not drawn): above 300 °C; for `CC(C)(C)c1cc(C(=O)c2cccs2)cc(CN2CCCCC2)c1O`: 132 to 133 °C; for `CS(=O)(=O)c1ccc(C(=O)C(=CO)C(=O)C2CC2)c(Cl)c1-c1nccs1`: 176 °C.
In the case of `FC(F)(F)c1cccc(N2CCN(Cc3ccc(-c4ccccc4)o3)CC2)c1`, the melting point was 56 °C.
Under `CCC(OC(C)=O)c1ccc(Cl)c2nc3n(c12)CCCN3c1ncc(Cl)cc1Cl` (stereo not drawn) stands 157 to 159 °C; under `COc1ccc(C=C2c3ccccc3CCc3ccccc32)cc1NS(C)(=O)=O`, 192 °C; under `CC1(C)C(=O)Oc2ccc(C#N)cc21`, 138 to 140 °C.
The same measure for `COc1ccc2c(c1)c(CC(=O)NN)c(C)n2Cc1c(Cl)cccc1Cl`: 194 to 196 °C; for `O=C(Nc1n[nH]c2cc(Cl)ccc12)c1ccccn1`: 177 °C.
The same measure for `COc1nc2ccccc2cc1N(C(=O)N1CCN(c2cc(C)cc(C)c2)CC1)C(C)C`: 114 to 115 °C; for `COc1ccccc1C(N)=CC#N`: 74 to 75 °C; for `CNc1ccc(C(=N)NC(=O)OCc2ccccc2)c(F)c1`: 128 to 130 °C.
In the case of `Cc1nc2nc(C(=O)NO)cc(S)n2n1`, the melting point lay in the range of 178 to 179 °C.
Consider `COC(=O)c1cc(C(=O)NCC(N)=O)c2cc(Cc3ccc(F)cc3)cnc2c1O`, for which the melting point was 247 to 248 °C.
The same measure for `Cn1ncc(C(=O)N2CCC2)c1C(=O)Nc1cc2nc(-c3ccccc3)nn2cc1F`: above 250 °C; for `CC1CC2C3CC(Cl)C4=CC(=O)C=CC4(C)C3(Cl)C(O)CC2(C)C1C(=O)COC(=O)C(C)(C)C` (stereo not drawn): 238 °C; for `c1nc(Nc2ccc3[nH]ccc3c2)c2sc(-c3ccc(CNCCN4CCNCC4)cc3)cc2n1`: 178 to 191 °C.
Compound `COc1ccc(Cl)c(Oc2c(NS(=O)(=O)c3ccc4c(c3)OCO4)ncnc2OCCO)c1` displayed a melting point of 148 to 150 °C.
Under `CC12OCC(CO)(CO1)CO2` stands 110 to 112 °C.
The same measure for `CC1(C)CC(=NO)c2cc(-c3ccc(Br)cc3)ccc2O1`: 166 to 170 °C; for `CC1=CC(C)(C)N2CCCc3c(O)ccc1c32`: 125 to 126 °C.
